{
  "source": "patent US4550186A",
  "about": "“Binuclear copper (II) carboxylates formed from amine-carboxyboranes” (Duke University, priority 1983, dated 1985)",
  "key": {"thymidylate synthetase [1]": {"target": "T1, thymidylate synthetase (Mus musculus, UniProt P07607)", "T1 sequence (P07607 whole entry)": "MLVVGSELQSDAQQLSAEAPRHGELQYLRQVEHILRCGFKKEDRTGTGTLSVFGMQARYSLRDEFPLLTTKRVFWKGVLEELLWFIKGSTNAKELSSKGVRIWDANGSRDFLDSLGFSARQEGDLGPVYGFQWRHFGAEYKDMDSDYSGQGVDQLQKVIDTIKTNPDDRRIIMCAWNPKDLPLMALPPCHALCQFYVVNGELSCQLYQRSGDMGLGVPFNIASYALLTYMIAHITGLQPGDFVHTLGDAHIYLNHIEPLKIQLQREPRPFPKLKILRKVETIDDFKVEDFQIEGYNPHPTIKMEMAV", "assay": "In vivo thymidylate synthetase activity", "description": "(§1) CF1 male mice (~30 g) were implanted with 2×10^6 Ehrlich ascites tumor cells, intraperitoneally on Day 0. Compound I was suspended by homogenation in 0.05% polysorbate.80-water and administered intraperitoneally at 10 and 20 mg/kg for 9 days to determine its effectiveness for inhibition of tumor growth. Mice were sacrificed on Day 10, and the ascites fluid was collected from the peritoneal cavity. The volume and ascrit (packed cell volume) were determined for each animal and the percent inhibition of tumor growth was calculated. For the metabolic studies, mice were treated on Days 8 and 9 with 10 mg/kg of Compound I, intraperitoneally. […]\n(§2) Carbamyl phosphate synthetase activity was determined using the reaction medium of Kalman et al [Am. […] Citrulline formed from ornithine was measured at 490 nm by the method of Archibald [J. Biol. Chem., 156, 121 (1944)]. […] The ^14 CO2 generated in 15 min was trapped in 1M KOH and counted. Thymidylate synthetase activity was determined using a post-mitochondrial supernatant (9000 g×10 min) and 5 μCi of 5-^3 H-deoxyuridine monophosphate (14 Ci/mmol) according to the method of Kampf et al [ J. Med. Chem., 19, 903 (1976)]. ^14 C-Formate incorporation into purines was determined by the method of Spassova et al [Biochem. Pharmacol., 25, 923 (1976)] using 0.5 μCi of ^14 C-formic acid (52.0 mCi/mmol). […] The Rf value for xanthine monophosphate was scraped and counted. […]"}, "thymidylate synthetase [2]": {"target": "T1, thymidylate synthetase", "assay": "In vitro thymidylate synthetase activity", "format": "biochemical", "conditions": "0.25 to 1.0 mM", "description": "as §1, §2"}, "ribonucleotide reductase": {"target": "T2, ribonucleotide reductase (Mus musculus, UniProt P07742+P11157)", "T2 construct": "endogenous in cells; host or cells: Ehrlich ascites tumor cells", "T2 sequence (P07742 1-792)": "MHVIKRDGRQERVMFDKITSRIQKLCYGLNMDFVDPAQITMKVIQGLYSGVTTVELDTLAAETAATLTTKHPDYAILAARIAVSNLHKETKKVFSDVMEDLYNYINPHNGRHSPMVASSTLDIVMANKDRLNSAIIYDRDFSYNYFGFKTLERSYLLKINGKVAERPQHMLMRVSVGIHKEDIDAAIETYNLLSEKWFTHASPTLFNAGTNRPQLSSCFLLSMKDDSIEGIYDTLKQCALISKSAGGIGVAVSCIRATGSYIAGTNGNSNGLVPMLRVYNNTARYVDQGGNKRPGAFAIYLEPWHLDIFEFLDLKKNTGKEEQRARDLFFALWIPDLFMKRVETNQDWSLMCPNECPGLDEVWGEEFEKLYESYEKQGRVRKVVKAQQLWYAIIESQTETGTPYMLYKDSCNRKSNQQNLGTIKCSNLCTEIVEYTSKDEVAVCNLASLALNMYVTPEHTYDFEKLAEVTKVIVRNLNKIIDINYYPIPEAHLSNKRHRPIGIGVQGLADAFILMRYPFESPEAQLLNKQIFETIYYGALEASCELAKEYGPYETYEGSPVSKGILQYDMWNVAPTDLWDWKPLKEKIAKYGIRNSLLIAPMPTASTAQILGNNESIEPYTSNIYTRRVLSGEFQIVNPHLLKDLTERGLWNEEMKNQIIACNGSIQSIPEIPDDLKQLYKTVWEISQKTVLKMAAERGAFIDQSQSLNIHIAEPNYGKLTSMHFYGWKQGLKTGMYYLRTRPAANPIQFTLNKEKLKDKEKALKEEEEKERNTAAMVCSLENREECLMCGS", "T2 sequence (P11157 1-390)": "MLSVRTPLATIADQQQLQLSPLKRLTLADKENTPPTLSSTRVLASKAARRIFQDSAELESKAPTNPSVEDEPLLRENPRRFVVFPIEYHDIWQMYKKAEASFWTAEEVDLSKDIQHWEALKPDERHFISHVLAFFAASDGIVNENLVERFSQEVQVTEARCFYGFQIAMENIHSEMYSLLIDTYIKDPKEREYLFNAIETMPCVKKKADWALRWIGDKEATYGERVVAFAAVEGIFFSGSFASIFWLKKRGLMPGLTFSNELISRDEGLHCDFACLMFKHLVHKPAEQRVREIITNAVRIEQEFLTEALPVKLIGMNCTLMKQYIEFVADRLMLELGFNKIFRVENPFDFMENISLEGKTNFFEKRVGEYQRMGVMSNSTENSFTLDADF", "assay": "In vitro ribonucleotide reductase activity", "format": "biochemical", "conditions": "0.25 to 1.0 mM", "description": "as §1, §2"}},
  "data": [
    {"substance": "{Cu[(CH3)3 N.BH2 CO2 ]2.(CH3)3 N.BH2 COOH} [Compound I]", "values": [
      {"measurement": "Thymidylate synthetase activity suppressed", "setting": "thymidylate synthetase [1]", "result": 5, "unit": "%"},
      {"measurement": "Thymidylate synthetase activity", "setting": "thymidylate synthetase [1]; 10 mg/kg/day I.P. on Days 8 and 9", "result": "102 ± 9", "unit": "% Control"},
      {"measurement": "thymidylate synthetase inhibition", "setting": "thymidylate synthetase [2]", "result": "not inhibited"},
      {"measurement": "ribonucleotide reductase inhibition", "setting": "ribonucleotide reductase", "result": "not inhibited"}
    ]}
  ]
}
